# Read-outs that look alike come from different tables or passages of the source.
# Experiments:
# [1] = molecular target: T1, hpol κ (Homo sapiens, UniProt Q9UBT6); assay: Fluorescence-based (TAMRA/BHQ strand displacement) DNA polymerase activity assay
# T1 sequence (Q9UBT6 19-526): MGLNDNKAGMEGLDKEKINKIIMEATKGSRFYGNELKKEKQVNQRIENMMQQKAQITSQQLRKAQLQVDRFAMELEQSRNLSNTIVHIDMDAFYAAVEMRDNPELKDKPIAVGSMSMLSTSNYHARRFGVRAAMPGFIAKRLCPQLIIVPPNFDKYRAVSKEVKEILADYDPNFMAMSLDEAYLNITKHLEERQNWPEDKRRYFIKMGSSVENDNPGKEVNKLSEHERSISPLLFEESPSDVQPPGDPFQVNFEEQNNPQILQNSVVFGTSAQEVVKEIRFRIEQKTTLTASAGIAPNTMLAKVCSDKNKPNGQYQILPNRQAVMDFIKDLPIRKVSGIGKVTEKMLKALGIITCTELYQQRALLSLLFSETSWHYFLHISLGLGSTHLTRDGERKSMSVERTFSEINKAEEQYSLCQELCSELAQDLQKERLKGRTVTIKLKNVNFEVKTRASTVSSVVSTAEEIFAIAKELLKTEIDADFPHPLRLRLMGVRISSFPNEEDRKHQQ
# [2] = molecular target: T1, hpol κ; assay: HPG labeling (chemical footprinting) with LC-MS; set-up: hpol κ (residues 19-526); made in house; details: IAG-10 20 and 100 μM added
# Method: HPG is a commonly used amino-acid modifier, which when reacted with a protein, modifies the L-arginine side chains selectively. HPG labeling experiments were performed with hpol κ (10 μM) in the presence or absence of UAMS-48. Briefly, hpol κ was pre-incubated with either 20 μM (1:2 molar ratio) or 100 μM (1:10 molar ratio) IAG-10 for 10 mins at 37° C. in 50 mM HEPES buffer (pH 7.8) containing 200 mM NaCl, 10 mM MgCl2, and 10% v/v DMSO. The HPG labeling was carried out at 37° C. in the dark for 1 hr by adding 500 μM of HPG to the pre-incubated reaction mix, followed by addition of 200 mM of free L-arginine to quench the reaction after 1 hr. […]
# The peak intensity was then quantified manually using the corresponding m/z value and the relative abundance for each modified peptide was calculated as a function of area under the peak in Xcalibur™ software (ThermoFisher Scientific). The percentage of modified arginine measured by mass spectrometry was calculated as a fraction of total arginine (i.e. unmodified+HPG modified) quantified for a specific residue. […]
# Next, Chemical footprinting was used in an effort to ascertain the binding site of IAG-10 on hpol κ. […] After quenching the reaction and gel electrophoresis, the modified protein was trypsin-digested, and the resulting peptides were analyzed by LC-MS. […]
# [3] = molecular target: T2, Tb pol I (Mycobacterium tuberculosis, UniProt P9WNU5); assay: Fluorescence-based polymerase assay, other pol families; assay type: biochemical; details: 10 μM; 10 nM Tb pol I (A-family)
# T2 construct: made in house
# [4] = system: T98G spheroids (GSC); assay: GSC clonogenic survival assay; assay type: cell-based; details: 50 nM, 3 hours
# Method: GSC clonogenic survival assay. Spheroids proficient and deficient in hpol κ were cultured for 12 days as described above before treating with PNR 7-48 (50 nM) for 3 hours. Spheroids were harvested, titrated into single cell populations and counted via trypan blue exclusion assay. Around 500 viable cells were plated per well in a 6 well dish and allowed to recover for 8-10 days in MEM with 10% FBS. Cells were fixed with 4% formaldehyde (v/v) for 30 min followed by staining with crystal violet (Sigma Aldrich, St. Louis, MO) for 30 min. Total number of colonies were counted using the EVOS microscope, with viable colonies consisting of 25 cells or more. This experiment was done in technical triplicate. As with spheroid growth, clonogenic survival was impeded for T98G cells lacking hpol κ activity (FIG. 11).
# T2 sequence (P9WNU5 whole entry): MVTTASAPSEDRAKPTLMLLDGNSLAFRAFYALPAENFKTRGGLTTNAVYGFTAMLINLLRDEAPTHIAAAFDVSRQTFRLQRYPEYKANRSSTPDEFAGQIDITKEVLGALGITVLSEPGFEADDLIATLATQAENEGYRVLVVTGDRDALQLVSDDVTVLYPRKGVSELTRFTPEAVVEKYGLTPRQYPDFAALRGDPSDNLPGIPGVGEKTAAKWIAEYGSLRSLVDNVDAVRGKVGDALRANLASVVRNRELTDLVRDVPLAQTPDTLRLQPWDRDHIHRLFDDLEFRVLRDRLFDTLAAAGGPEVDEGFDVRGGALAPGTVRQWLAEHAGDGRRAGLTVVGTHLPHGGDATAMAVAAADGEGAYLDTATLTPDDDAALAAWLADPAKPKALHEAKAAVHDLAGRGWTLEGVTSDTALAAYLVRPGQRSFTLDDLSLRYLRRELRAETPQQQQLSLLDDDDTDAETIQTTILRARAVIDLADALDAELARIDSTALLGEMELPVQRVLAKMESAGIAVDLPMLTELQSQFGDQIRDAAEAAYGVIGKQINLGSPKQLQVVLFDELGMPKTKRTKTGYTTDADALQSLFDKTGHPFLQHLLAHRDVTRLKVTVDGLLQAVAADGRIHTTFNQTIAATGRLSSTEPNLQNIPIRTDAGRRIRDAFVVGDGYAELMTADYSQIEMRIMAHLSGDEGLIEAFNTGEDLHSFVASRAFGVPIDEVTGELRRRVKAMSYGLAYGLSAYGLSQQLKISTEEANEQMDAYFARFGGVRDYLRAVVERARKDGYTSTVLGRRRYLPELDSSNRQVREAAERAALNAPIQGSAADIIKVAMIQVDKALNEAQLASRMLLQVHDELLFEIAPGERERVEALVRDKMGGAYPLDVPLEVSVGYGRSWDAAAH
smiles,measurement,setting,value
"Cl.[H]/N=C(\N)NN=Cc1cn(C(=O)c2cccc3ccccc23)c2ccc(Cl)cc12 [IAG-10, (E)-2-((1-(1-naphthoyl)-5-chloro-1H-indol-3-y1)methylene)hydrazine-1-carboximidamide hydrochloride]",polymerase activity relative to DMSO control,"[1]; 10 μM, 25 nM hpol κ, comparison with A, B, X family pols",only hpol κ activity was inhibited
same,% Activity Mean (hpol κ activity),"[1]; IAG compounds, 40 μM, rate relative to DMSO control, three independent experiments",0.0%
same,specificity for hpol κ over η,[1]; after altering the reaction conditions (lower enzyme and DNA),~ 30 fold
same,specificity for hpol κ over η,[1]; before altering the reaction conditions,~ 2 fold
same,IC50,"[1]; read-out: IC50 against hpol κ, structure-activity study, 1 nM hpol κ, 50 nM DNA",7.2 µM
same,IC50,"[1]; read-out: IC50 for inhibition of hpol κ, 0.5 nM DNA, 0.1 nM hpol κ, 95% confidence interval in parentheses",0.72 µM
same,IC50,"[1]; read-out: IC50 for inhibition of hpol κ, 1 nM DNA, 95% confidence interval in parentheses",1.1 µM
same,IC50,"[1]; read-out: IC50 for inhibition of hpol κ, 2.5 nM DNA, 95% confidence interval in parentheses",1.4 µM
same,IC50,"[1]; read-out: IC50 for inhibition of hpol κ, 10 nM DNA, 95% confidence interval in parentheses",8.9 µM
same,IC50,"[1]; read-out: IC50 for inhibition of hpol κ, 25 nM DNA, 95% confidence interval in parentheses",8.9 µM
same,IC50,"[1]; read-out: IC50 for inhibition of hpol κ, 50 nM DNA, 95% confidence interval in parentheses",7.2 µM
same,"turnover number (kcat), hpol κ-catalyzed dTTP insertion",[1]; steady-state kinetics with varying inhibitor concentration,sharp decrease
same,"decrease in the fraction of HPG-modified peptides (Arg145, Arg149, Arg505)",[2],> 50%
same,fraction of HPG-modified peptides containing Arg48,[2],large increase
same,polymerase activity relative to DMSO control,[3],only hpol κ activity was inhibited
same,GSC differentiation,[4],inhibit GSC differentiation

# Source: patent US12685733B2, “Indole molecules and use thereof in the inhibition of DNA polymerases” (BioVentures, LLC, priority 2019, dated 2026)
